Laboratory results: US11419865B2, “Method for inducing a sustained immune response” (Cytocom Inc., priority 2016, dated 2022)

Experiments:
[1] = test system: A549 (lung) and HCT116 (CRC); assay: continuous 48 h exposure, lung and CRC cells
children with autism [2] = assay: autism case reports
HIV = assay: single blind 90 day randomized bridging clinical trial in Nigeria, asymptomatic HIV+ adults on ART; assay type: in vivo, human
Protocol: The differences in CD4 count, CD4%, hemoglobin, viral load, interferon alpha, and standard chemistry panel were measured between treated versus non-treated groups four times throughout the study. […] When used alone, it appears to slow and/or stop the progression of the disease.

[3] = test system: patients with primary progressive multiple sclerosis (PPMS); assay: six month phase II multicenter pilot trial in primary progressive multiple sclerosis, 40 patients; assay type: in vivo, human
Protocol: […]. The primary end points were safety and tolerability. Secondary outcomes were efficacy on spasticity, pain, fatigue, depression, and quality of life. Clinical and biochemical evaluations were serially performed. Protein concentration of beta-endorphins (BE) and mRNA levels and allelic variants of the mu-opioid receptor gene (OPRM1) were analyzed.

[4] = test system: myasthenia gravis patient; assay: myasthenia gravis case report; assay type: in vivo, human; details: drug interrupted
cancer patients = assay: cancer case reports; assay type: in vivo, human
Protocol: person diagnosed with stage 3-stomach cancer prognosis 6 months to live on Mar. […] 28, 2007. In addition to Immediate release naltrexone patients received chemotherapy and kidney stents inserted. […].
Person diagnosed with stage 4 pleural mesothelioma in December of 2008 and patients after consult with two other doctors it was determined due to the state of the diseases and other health issues to watch the tumors and not do chemotherapy. Prognosis was 6 to 12 months. Patient started 4.5 mg nightly and received on other treatment but did change diet. […] […].
A person diagnosed with stage 4-colon cancer, 2007 which had spread to their lungs and liver, they removed 40% of their colon and began a round of chemotherapy and three surgeries removed 40% of their colon, half is their right lung and 75% of their liver. During the next 18 months received 47 weeks of chemotherapy (a combination of 4 chemo drugs at once). […].
person was diagnosed with stage 3 prostate cancer which they were originally treated for 5 years before began 3 rounds of Docetaxel (Taxotere®). They were prescribed 4.5 mg of […]

women with fibromyalgia = assay: randomized, double blind, placebo-controlled crossover study, 31 women with fibromyalgia; assay type: in vivo, human; details: 4.5 mg daily
Text: Thirty-one women with fibromyalgia participated in the randomized, double blind, placebo-controlled, and counterbalanced, crossover study. […]. An intensive longitudinal design was used to measure daily levels of pain. […]; P=0.016). […]. […] […]; P=0.016). […].

[5] = test system: patients with active Crohn's disease; assay: 12-week study of 4.5 mg naltrexone/day in active Crohn's disease (17 patients); assay type: in vivo, human
Protocol: . Infliximab was not allowed for a minimum of 8 weeks prior to study initiation. Other therapy for Crohn's disease that was at a stable dose for 4 weeks prior to enrollment was continued at the same doses. Patients completed the inflammatory bowel disease questionnaire (IBDQ) and the short-form (SF-36) quality of life surveys and CDAI scores were assessed pretreatment, every 4 weeks on therapy and 4 weeks after completion of the study drug. Drug was administered by mouth each evening for a 12-week period. RESULTS: Seventeen patients with a mean CDAI score of 356+/−27 were enrolled.

children with autism [6] = assay: autism, 155 children in 10 studies; assay type: in vivo, human
Text: 155 children participated in 10 studies; 27 received placebo. […].

[7] = test system: psoriatic arthritis patient; assay: psoriatic arthritis case report; assay type: in vivo, human
systemic lupus patients = assay: systemic lupus case reports; assay type: in vivo, human
Text: […]. […] […].
Psoriasis mostly resolved.

[8] = test system: diabetic neuropathy patient; assay: diabetic neuropathy case report; assay type: in vivo, human
Text: person, diagnosed with diabetic neuropathy for the last six years was prescribed one or two tablets every four to six hours as needed for pain. Patient takes between 4 to 8 tablets a day.

## O=C1CC[C@@]2(O)[C@H]3Cc4ccc(O)c5c4[C@@]2(CCN3CC2CC2)[C@H]1O5 [Immediate release naltrexone, naltrexone]
[1]
  effect on A549 and HCT116: no effect
Children with autism [2]; 3 mg
  initial effect, child, Autism: hyperactivity increased for the first three weeks
Children with autism [2]; 5 ml at bedtime
  side effect, child, Autism: a little constipation
HIV; about 4.5 mg single oral dose with ART, at 3 months
  increase in CD4 count: 44%
HIV; about 4.5 mg with ART
  BMI: increase in BMI
  opportunistic infections: reduction in opportunistic infections
HIV; about 4.5 mg with ART, at 3 months, control 54 subjects
  improvement in CD4 count vs control group: significantly greater than the control group
HIV; about 4.5 mg with ART, throughout treatment
  Improvement in CD4%: the increases were statistically significant
[3]; 40 patients
  Neurological disability: progressed in only one patient
  dropouts and major adverse events: Five dropouts and two major adverse events occurred
[3]; end of the six month trial
  spasticity: significant reduction of spasticity
[3]; human, in vivo
  beta-endorphins (BE) concentration: increased during the trial
  safety and tolerability: safe and well tolerated
[4]
  effect of running out of drug, person, myasthenia gravis: symptoms began to return within 72 hours
Cancer patients; 4.5 mg nightly from June of 2007 with chemotherapy
  tolerance of chemotherapy, person, stage 4-colon cancer: able to complete the entire protocol without any major side effects at all
Cancer patients; 4.5 mg nightly with 3 rounds of Docetaxel
  tolerance of chemotherapy, person, stage 3 prostate cancer: able to withstand the chemotherapy and their blood work stayed stable throughout the protocol
Cancer patients; 4.5 mg nightly, no chemotherapy, February 2009 and 2010
  CAT scans, person, stage 4 pleural mesothelioma: no measurable growth of tumors
Cancer patients; 4.5 mg nightly, scans every six months
  disease course, person, stage 4-colon cancer: continued cancer free until June of 2015
Cancer patients; 4.5 mg with chemotherapy, September 2007
  CT scan, person, stage 3-stomach cancer: tumors shrunk in half
Cancer patients; 4.5 mg, December of 2007
  disease status, person, stage 3-stomach cancer: in remission and stable
Cancer patients; 4.5 mg, March 2008
  CT scan, person, stage 3-stomach cancer: tumors had shrunk in half
Cancer patients; 4.5 mg, March of 2009
  scan, person, stage 3-stomach cancer: tumors were stable
Women with fibromyalgia
  fatigue or sleep: not improved fatigue or sleep
  tolerability and side effects: rated equally tolerable as placebo, and no serious side effects were reported
Women with fibromyalgia; P=0.039
  mood: improved mood
Women with fibromyalgia; P=0.045
  general satisfaction with life: improved general satisfaction with life
Women with fibromyalgia; placebo 11%, P=0.05
  participants meeting the criteria for response: Thirty-two
[5]; 4.5 mg/day by mouth each evening, 12 weeks, baseline mean 356+/−27, P=0.01
  CDAI scores: decreased significantly
[5]; 4.5 mg/day, 12 weeks
  laboratory abnormalities: No laboratory abnormalities were noted
  patients with response to therapy: Eighty-nine
[5]; 4.5 mg/day, 12 weeks, P<0.001
  patients achieving remission: 67%
[5]; 4 weeks after completing therapy
  CDAI scores after end of therapy: remained lower than baseline
[5]; compared with baseline
  quality of life surveys (IBDQ, SF-36): Improvement was recorded in both quality of life surveys
Children with autism [6]; 98 of the 128 that received naltrexone
  children with statistically significant improvement in symptoms of irritability and hyperactivity: 77%
Children with autism [6]; in vivo
  side effects and tolerability: Side effects were mild and the drug was generally well tolerated
[7]; 4.5 mg at bedtime, within 10 days
  medication use, person, psoriatic arthritis: able to discontinue all paid medications as well as the Humira
[7]; 4.5 mg, last six months
  disease course, person, psoriatic arthritis: the disease has stabilized and the progressive deterioration has stopped
Systemic lupus patients; 1.5 mg
  MRSA recurrence, person, systemic lupus: No recurrence of MRSA in 8 years
Systemic lupus patients; 1.5 mg starting dose
  tolerability, person, systemic lupus: unable to take it due to insomnia and pruritis
Systemic lupus patients; 3 mg from March 2013, within three weeks
  mobility, person, Systemic Lupus: improved mobility
Systemic lupus patients; 3 mg increasing to 4.5 mg, within 4 months
  skin, person, Systemic Lupus: skin cleared almost 100%
Systemic lupus patients; 4.5 mg
  hospital stays, person, Systemic Lupus: no hospital stays since March of 2013
Systemic lupus patients; liquid form, 0.1 mg increased weekly to 1.5 mg, with supplements, diet
  disease status, person, systemic lupus: Lupus, in remission
[8]; 4.5 mg
  additional benefits, diabetic neuropathy: resolutions of RLS
[8]; 4.5 mg from March of 2015, within 3 days
  pain medication use, diabetic neuropathy: cut down the number of pills in half
[8]; 4.5 mg, within 8 weeks
  pain medication use, diabetic neuropathy: stopped all pain medication
